Earlier results in US4296101A, “Antibiotic kristenin” (E. R. Squibb & Sons, Inc., priority 1978, dated 1981).

Tested on: gram positive bacteria
Conditions: stated by Okazaki et al., Journal of Antibiotics, Vol. 28, No. 9, pages 717-719

CCC(N)C(O)C(O)C(C)C(=O)NC(CC(C)C)C1Cc2cccc(O)c2C(=O)O1 (stereo not shown) [baciphelacin]
active against gram positive bacteria: active against gram positive bacteria
